US20090270443A1, “1-AMINO IMIDAZO-CONTAINING COMPOUNDS AND METHODS” (priority 2004, published 2009)

Structure (SMILES)	melting point [°C]
CCOCc1nc2c(N)nc(C)c(C)c2n1NCCCS(C)(=O)=O [Example 39, 2-(Ethoxymethyl)-6,7-dimethyl-N^1-[3-(methylsulfonyl)propyl]-1H-imidazo[4,5-c]pyridine-1,4-diamine]	150 to 155
CCOCc1nc2c(N)nc(C)c(C)c2n1NCc1ccc(Cl)c(Cl)c1 [Example 45, N^1-(3,4-Dichlorobenzyl)-2-ethoxymethyl-6,7-dimethyl-1H-imidazo[4,5-c]pyridine-1,4-diamine]	186 to 188
